“And” between values parts separate entries of the source, which are not always exact repeats. Equal entries are not always repeated. “Also recorded” adds a separate entry of the source.

Consider nine compounds from patent US20020142940A1, “Method of inhibiting viral infection using HMG-COA reductase inhibitors and isoprenylation inhibitors” (priority 2000, published 2002).

The subject of one series is HIV. Particulars: cultured MT-2 cells; reported in U.S. Ser. No. 09/129,565; cited from earlier work.
The subject of series [1] is HPIV-3. Kind of series: HPIV-3 syncytia formation in HEp-2 cells. The class given is cell-based. The following applies: for rescue of lovastatin inhibition of HPIV-3 syncytia formation: added to lovastatin treated cells.
In series [2] the test system is RSV. The series can be described thus: RSV replication in HEp-2 cell culture, plaque assay. The series is classed as cell-based. On the procedure: FIG. 5—Lovastatin eliminates RSV replication in cell culture. HEp-2 cell monolayers grown in 96 well plates were treated with either 10 μM lovastatin or left untreated beginning 24 hr prior to RSV infection (moi 0.1). Virus titer was measured for 8 consecutive days after RSV infection daily by plaque assay for eight days post RSV infection by harvesting the entire contents of a well and performing plaque assays in triplicate. RSV growth curve in untreated cells (□) and in cells treated with 10 μM lovastatin ( ? ). Error bars represent standard deviation.
Virus and Cells. The A2 strain of RSV was provided by Dr. R. Chanock, NIH, Bethesda, Md. RSV stocks were prepared as previously described (Graham et al., 1988). HEp-2 cells were maintained in Eagle's minimal essential media supplemented with glutamine, gentamicin, penicillin G, and 10% fetal bovine serum (FBS).
Plaque assay. Two-day-old HEp-2 monolayers, 80% confluent in 12-well plates (Costar, Cambridge, Mass.) were used for plaque assay. The assay was done as previously described (Graham et al., 1988).
Lovastatin eliminates RSV replication in HEp-2 cells. Next, the inventors asked whether lovastatin could alter RSV replication in cell culture. HEp-2 cells in a 96-well plate were treated with either 10 μM lovastatin or left untreated beginning 24 hr prior to RSV infection. […]

Series [3] concerns HPIV-3. The series can be described thus: HPIV-3 replication in HEp-2 cells, plaque assay. The series is classed as cell-based. The following applies: for rescue of lovastatin inhibition of HPIV-3 replication: added to 10 μM lovastatin treated cells, 50 μM GGP, mevalonolactone or FP, cholesterol concentration not given; for reduction of HPIV-3 replication: 5 μM, 24 hrs treatment, MOI 0.1, titer 2 days after infection.

A short description of series [4]: Weight loss in uninfected treated mice. The series is classed as in vivo. Particulars: 1 mg/day lovastatin or 50 mg/day gemfibrozil for 11 days.
The next series relates to vaccinia virus. The series is classed as in vivo, mice. Particulars: 1 mg/day lovastatin or 50 mg/day gemfibrozil oral gavage beginning three days prior to infection, vs PBS.
The test system of the next series is HIV-1. The following applies: human H9 lymphocytic cell line, early stages of infection; cited from earlier work.
For series [5], the system named is RSV. The series can be described thus: RSV replication in mice, lung plaque assay. Particulars: for peak RSV titer in the lung: mice, oral gavage beginning three days prior to infection, 1 mg/day lovastatin or 50 mg/day gemfibrozil, lungs day 4. The class given is in vivo.
In series [6] the test system is RSV. Kind of series: RSV-induced weight loss and illness in mice. The class given is in vivo. The following applies: for peak percent weight loss on day 8 post infection: comparison PBS, gemfibrozil, lovastatin treated RSV-infected mice.
The subject of series [7] is RSV glycoproteins F, G and SH. The series is classed as cell-based.
The mark [8] stands for this setting: 5 μM, beginning 24 hr prior to infection, MOI 0.1, two days post infection.
Setting [9] is: 10 μM lovastatin beginning 24 hr prior to infection, MOI 0.1.

Turning to “RhoA77-95: peptide comprising the sequence of amino acids 77-95 of RhoA (TDVILMCFSIDSPDSLENI; UniProt P61586 77-95, looked up, fragment)”, the “HIV infection and syncytia formation” value with HIV was “inhibit both infection and syncytia formation”.
On to `C[C@@]1(O)CCOC(=O)C1` [mevalonolactone], for which the “rescue of lovastatin inhibition of HPIV-3 syncytia formation” value in the series with HPIV-3 [1] was “rescues the inhibition”. Also, the “rescue of lovastatin inhibition of RSV replication” value in the series with RSV [2] (10 μM lovastatin for 24 hr followed by 20 μM mevalonolactone) is reported as “can be rescued”. In the series on HPIV-3 [3], the “rescue of lovastatin inhibition of HPIV-3 replication” value is “rescues the inhibition”.
As for `CC(C)=CCC/C(C)=C/CC/C(C)=C/CC/C(C)=C/COP(=O)(O)OP(=O)(O)O` [geranylgeranylpyrophosphate], the “rescue of lovastatin inhibition of HPIV-3 syncytia formation” value in the series with HPIV-3 [1] was “rescues the inhibition”. Also, the “rescue of lovastatin inhibition of HPIV-3 replication” value in the series on HPIV-3 [3] is “rescues the inhibition”.
For `CC(C)CCC[C@@H](C)[C@H]1CC[C@H]2[C@@H]3CC=C4C[C@@H](O)CC[C@]4(C)[C@H]3CC[C@]12C` [cholesterol], in the series with HPIV-3 [3], the “rescue of lovastatin inhibition of HPIV-3 replication” value was “cannot rescue the inhibition”.
`CC(C)=CCC/C(C)=C/CC/C(C)=C/COP(=O)(O)OP(=O)(O)O` [farnesylpyrophosphate]: the “rescue of lovastatin inhibition of HPIV-3 syncytia formation” value in the series on HPIV-3 [1] is recorded as “does not rescue the inhibition”. Moreover, the “rescue of lovastatin inhibition of HPIV-3 replication” value with HPIV-3 [3] is given as “partially restores”.
On to `COC(=O)[C@H](CC(C)C)NC(=O)c1ccc(NC[C@@H](N)CS)cc1-c1cccc2ccccc12` [GGTI-298], for which the HPIV-3-induced syncytia formation result with HPIV-3 [1] (setting [8]) is “blocked”. In addition, the “reduction of HPIV-3 replication” value with HPIV-3 [3] was 100 fold.
With `COC(=O)[C@H](CCSC)NC(=O)c1ccc(NC[C@@H](N)CS)cc1-c1ccccc1` [FTI-277], in the series with HPIV-3 [1] (setting [8]), the HPIV-3-induced syncytia formation result is recorded as “does not inhibit”. Further, the “reduction of HPIV-3 replication” value in the series with HPIV-3 [3] is on record as 10 fold.
For the compound `CC[C@H](C)C(=O)O[C@H]1C[C@@H](C)C=C2C=C[C@H](C)[C@H](CC[C@@H]3C[C@@H](O)CC(=O)O3)[C@H]21` [lovastatin], the “weight loss in uninfected mice” value in series [4] was “no significant weight loss”. The HPIV-3-induced syncytia formation entry in the series with HPIV-3 [1] (setting [9]) was “blocked”. For the same compound, the “RSV replication in HEp-2 cells” value in the series on RSV [2] (10 μM lovastatin beginning 24 hr prior to RSV infection (moi 0.1), titer for 8 days) is “completely inhibited”. Further, the “effect on vaccinia replication” value with vaccinia virus is reported as “not effected; also recorded: does not inhibit vaccinia virus replication”. Also, the “reverse transcriptase activity in H9 cells infected with HIV-1” value in the series on HIV-1 is listed as “decrease in reverse transcriptase activity”. For the same compound, in the series with RSV [5] (1 mg/day lovastatin beginning 1 day after RSV infection), the “reduction in RSV viral titer” value was determined as 10 fold. Moreover, the “reduction in RSV viral titer compared to untreated mice” value in the series on RSV [5] (1 mg/day lovastatin beginning 3 days after infection) is “no reduction”. Further, the “RSV viral titer in the lung on day 4” value is listed as 3.8+/−0.48 log10 pfu/gm with RSV [5] (1 mg/day lovastatin beginning 3 days prior to infection) and 6.3+/−1.1 log10 pfu/gm with RSV [5] (1 mg/day lovastatin starting 3 days after RSV infection). Besides, the “reduction in RSV viral titer in lung compared to untreated mice” value in the series with RSV [5] (1 mg/day lovastatin beginning 3 days prior to infection, day 4) was > 100 fold and 100- to 1000 fold. The “reduction of RSV replication” value in the series on RSV [5] (1 mg/day lovastatin oral gavage beginning three days prior to infection, vs PBS/gemfibrozil (FIG. 1)) was roughly 100 fold. For the same compound, the “inhibition of RSV replication, dose response” value in the series with RSV [5] (C57BL6 mice, 1 mg/day and 5 mg/day within 0.5 to 20 mg/day dose response) is “inhibited RSV replication equivalently”. The “peak RSV titer in the lung” value with RSV [5] was 4.7+/−0.4 log10 pfu/gm. The “peak weight loss 8 days post infection” value in the series on RSV [6] (1 mg/day lovastatin 1 day post infection) is 22%; in the series on RSV [6] (1 mg/day lovastatin 1 day prior to infection), 19%; in the series on RSV [6] (1 mg/day lovastatin 3 days prior to infection), 17%. Moreover, in the series on RSV [6] (1 mg/day lovastatin 3 days after RSV infection), the “peak percent weight loss at 8 days post infection” value was “about 30%”. Moreover, the “peak percent weight loss on day 8 post infection” value with RSV [6] turned out to be 19%. Also, the RSV-induced illness entry in the series with RSV [6] (lovastatin treatment, data not shown) was “reduces RSV-induced illness”. In addition, in the series on HPIV-3 [3] (setting [9]), the HPIV-3 replication entry was “completely blocks”. In addition, the “diminution of virus-induced cell-to-cell fusion” value in series [7] is on record as “greater than 50%”. Besides, in series [7], the “fusion events per well” value is 75+/−11 fusion events per well.
On to `Cc1ccc(C)c(OCCCC(C)(C)C(=O)O)c1` [gemfibrozil], for which the “weight loss in uninfected mice” value in series [4] is “no significant weight loss”. In addition, the “effect on vaccinia replication” value in the series with vaccinia virus is “not effected”. The “inhibition of RSV replication in mice” value with RSV [5] (50 mg/day gemfibrozil oral gavage (FIG. 1)) is given as “does not inhibit RSV replication”. Moreover, the “peak RSV titer in the lung” value in the series with RSV [5] is 6.5+/−0.43 log10 pfu/gm. In addition, the “peak percent weight loss on day 8 post infection” value in the series with RSV [6] worked out at 40%.
